A short description of data set [1]: Pharmacokinetics study of succinate salt crystals in dogs. Type of data set: in vivo. As to conditions: 5 mg/kg orally, plasma; for DN AUC0-24 / DN Cmax: dose-normalised; for Cmax / Tmax / half-life / AUC(0-t): dog, po; for AUC(0-t): read-out: AUC0-24. On the procedure: The succinate salt of 2-(4-acetylbenzyl)-3-((4-fluorophenyl)amino)-5,7,7-trimethyl-7,8-dihydro-2H-imidazo[1,2-a]pyrazolo[4,3-e]pyrimidin-4(5H)-one is administered to dogs at a dose of 5 mg/kg orally. A separate group of dogs is administered 2-(4-acetylbenzyl)-3-((4-fluorophenyl)amino)-5,7,7-trimethyl-7,8-dihydro-2H-imidazo[1,2-a]pyrazolo[4,3-e]pyrimidin-4(5H)-one free base 5 mg/kg orally. The analysis of drug concentration in plasma samples collected is analyzed.
The pharmacokinetic (PK) parameters are determined from the plasma concentration versus time data by non-compartmental methods with uniform weighting. The maximum observed concentration (Cmax) and the time of the maximum observed concentration (Tmax) are obtained from the bioanalytical raw data. The area-under-the-plasma concentration-time curve from time zero to the time of the last measurable sample (AUC) is calculated by the trapezoidal rule.

A short description of data set [2]: Solubility study of free base crystalline and succinate salt crystalline forms (pH titration, chase equilibrium). Type of data set: physicochemical. As to conditions: water, thermodynamic from solid, aqueous, titration with UV-turbidity probe. The text has this: The solubilities of free base crystalline and succinate salt crystalline forms of 2-(4-acetylbenzyl)-3-((4-fluorophenyl)amino)-5,7,7-trimethyl-7,8-dihydro-2H-imidazo[1,2-a]pyrazolo[4,3-e]pyrimidin-4(5H)-one are compared. Samples are titrated in water or in a minimum of three titrations under co-solvent conditions from the pH where the sample is fully dissolved. The sample precipitates from solution are detected by a UV-turbidity probe, which corresponds to a kinetic solubility. After precipitation, base and acid titrants are alternately added to drive the sample back and forth across the equilibrium solubility of the neutral species (the intrinsic solubility). At this point, the samples would exist in a supersaturated or subsaturated state (i.e. chase equilibrium). The intrinsic solubilities are determined from the pH between the supersaturated and subsaturated states corresponding to an intrinsic solubility. The samples can be determined by extrapolation to aqueous media, when co-solvent conditions are used.
This degree of aqueous solubility predicts faster dissolution rates in vitro and in vivo.

Data set [3] concerns phosphodiesterase 1 (PDE 1). To be noted: statement, no values; cited from earlier work.
The nature of data set [4]: Solid-state properties of succinate salt crystals (stated in words). Type of data set: physicochemical.

These results are taken from US20240101569A1, “SALT CRYSTALS” (INTRA-CELLULAR THERAPIES, INC., priority 2021, published 2024).

One may read the Cmax as the highest concentration seen after dosing. The term Tmax denotes the time from dosing to the highest level. Usually half-life stands for how long it takes for the measured level to halve. Usually solubility stands for the dissolved amount per volume that the medium holds.

For the compound `CC(=O)c1ccc(Cn2nc3c(c2Nc2ccc(F)cc2)C(=O)N(C)C2=NC(C)(C)CN23)cc1` [Free Base, 2-(4-acetylbenzyl)-3-((4-fluorophenyl)amino)-5,7,7-trimethyl-7,8-dihydro-2H-imidazo[1,2-a]pyrazolo[4,3-e]pyrimidin-4(5H)-one], in data set [1], the “DN AUC0-24” value was 304.6 [ng · hr/mL]/[mg/kg], the “DN Cmax” value is 41 [ng/mL]/[mg/kg], the maximum concentration (Cmax) was determined as 205 ng/mL and the Tmax was 1.3 h. In addition, in data set [1], the half-life was 6.8 h and the AUC(0-t) is 1520 ng·h/mL. Further, the solubility in data set [2] came out at 285 µg/mL. In addition, the “PDE1 inhibition (in words)” value in data set [3] was “potent and selective”.

For the compound `CC(=O)c1ccc(Cn2nc3c(c2Nc2ccc(F)cc2)C(=O)N(C)C2=NC(C)(C)CN23)cc1.O=C(O)CCC(=O)O` [Succinate Salt, 2-(4-acetylbenzyl)-3-((4-fluorophenyl)amino)-5,7,7-trimethyl-7,8-dihydro-2H-imidazo[1,2-a]pyrazolo[4,3-e]pyrimidin-4(5H)-one succinate], in data set [1], the “DN AUC0-24” value was 331.9 [ng · hr/mL]/[mg/kg], the “DN Cmax” value was 123.8 [ng/mL]/[mg/kg], the Cmax was determined as 619 ng/mL and the Tmax turned out to be 0.4 h. In data set [1], the half-life is 7 h and the AUC(0-t) worked out at 1660 ng·h/mL. In data set [4], the hygroscopicity result is on record as “low hygroscopicity”, the “solubility (in words)” value is given as “good solubility” and the stability entry is “particularly stable”. Also, the solubility in data set [2] is roughly 7000 µg/mL.
